Measurements from ChEMBL document CHEMBL4610012, “Identification of vibsanin A analog as a novel HSP90 inhibitor” (Bioorg Med Chem, 2020).
The source made the active and inactive calls. The rule behind the calls is not given here.

Assays:
[1] = test system: HT-1080; experiment: Antiproliferative activity against human HT1080 cells assessed as reduction in cell viability incubated for 72 hrs by MTT assay; assay type: functional, cell-based; details: HT-1080, 72 h
[2] = test system: A549; experiment: Antiproliferative activity against human A549 cells assessed as reduction in cell viability incubated for 72 hrs by MTT assay; assay type: functional, cell-based; details: A549, 72 h
[3] = test system: PANC-1; experiment: Antiproliferative activity against human PANC1 cells assessed as reduction in cell viability incubated for 72 hrs by MTT assay; assay type: functional, cell-based; details: PANC-1, 72 h
[4] = test system: A-431; experiment: Antiproliferative activity against human A431 cells assessed as reduction in cell viability incubated for 72 hrs by MTT assay; assay type: functional, cell-based; details: A-431, 72 h
[5] = test system: HT-29; experiment: Antiproliferative activity against human HT-29 cells assessed as reduction in cell viability incubated for 72 hrs by MTT assay; assay type: functional, cell-based; details: HT-29, 72 h
[6] = test system: SK-MEL-28; experiment: Antiproliferative activity against human SK-MEL-28 cells assessed as reduction in cell viability incubated for 72 hrs by MTT assay; assay type: functional, cell-based; details: SK-MEL-28, 72 h
[7] = Antiproliferative activity against human ES2 cells assessed as reduction in cell viability incubated for 72 hrs by MTT assay; assay type: functional, cell-based; details: ES-2, 72 h
[8] = test system: MCF7; experiment: Antiproliferative activity against human MCF7 cells assessed as reduction in cell viability incubated for 72 hrs by MTT assay; assay type: functional, cell-based; details: MCF7, 72 h
[9] = test system: PC-3; experiment: Antiproliferative activity against human PC3 cells assessed as reduction in cell viability incubated for 72 hrs by MTT assay; assay type: functional, cell-based; details: PC-3, 72 h
[10] = test system: NEC8; experiment: Antiproliferative activity against human NEC8 cells assessed as reduction in cell viability incubated for 72 hrs by MTT assay; assay type: functional, cell-based; details: NEC8, 72 h
[11] = test system: HT-1080; experiment: Induction of vacuole formation in human HT1080 cells at 10 uM incubated for 24 hrs; assay type: functional, cell-based
[12] = test system: HT-1080; experiment: Effect on Akt level in human HT1080 cells assessed as Akt level at 10 uM incubated for 24 hrs by immunoblot assay (reference value: 1); assay type: cell-based; details: ht-1080, 24 h
[13] = molecular target: T1, Serine/threonine-protein kinase AKT (Homo sapiens) (UniProt P31751+Q9Y243+P31749); experiment: Inhibition of Akt signaling pathway in human HT1080 cells assessed as fold change in phosphorylated Akt level at 10 uM incubated for 24 hrs by immunoblot assay (reference value: 1); assay type: cell-based; details: HT-1080
T1 sequence (P31749 whole entry, looked up): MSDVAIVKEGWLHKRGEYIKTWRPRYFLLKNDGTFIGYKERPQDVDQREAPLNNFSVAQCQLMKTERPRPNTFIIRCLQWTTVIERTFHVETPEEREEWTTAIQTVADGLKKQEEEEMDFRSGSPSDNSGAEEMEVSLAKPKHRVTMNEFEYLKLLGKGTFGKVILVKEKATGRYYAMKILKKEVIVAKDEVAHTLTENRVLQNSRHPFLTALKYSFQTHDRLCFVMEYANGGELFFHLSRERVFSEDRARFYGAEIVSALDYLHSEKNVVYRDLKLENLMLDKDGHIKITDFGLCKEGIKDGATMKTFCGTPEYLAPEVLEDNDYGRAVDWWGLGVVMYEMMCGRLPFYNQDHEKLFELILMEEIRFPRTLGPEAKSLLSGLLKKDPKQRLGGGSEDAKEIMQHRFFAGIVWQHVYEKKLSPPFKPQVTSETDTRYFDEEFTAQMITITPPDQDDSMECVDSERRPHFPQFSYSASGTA
T1 sequence (P31751 whole entry, looked up): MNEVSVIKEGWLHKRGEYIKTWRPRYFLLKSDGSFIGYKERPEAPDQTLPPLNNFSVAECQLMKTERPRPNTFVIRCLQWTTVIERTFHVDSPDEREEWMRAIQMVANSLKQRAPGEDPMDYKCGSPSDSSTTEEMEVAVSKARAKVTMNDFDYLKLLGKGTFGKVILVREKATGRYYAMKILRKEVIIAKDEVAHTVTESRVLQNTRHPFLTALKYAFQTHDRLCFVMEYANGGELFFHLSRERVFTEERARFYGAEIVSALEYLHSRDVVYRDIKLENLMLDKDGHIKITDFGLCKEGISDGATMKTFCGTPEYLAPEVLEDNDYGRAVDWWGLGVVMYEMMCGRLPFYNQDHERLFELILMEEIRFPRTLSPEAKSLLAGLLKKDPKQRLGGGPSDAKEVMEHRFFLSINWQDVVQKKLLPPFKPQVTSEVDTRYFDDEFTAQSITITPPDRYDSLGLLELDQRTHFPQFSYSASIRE
T1 sequence (Q9Y243 whole entry, looked up): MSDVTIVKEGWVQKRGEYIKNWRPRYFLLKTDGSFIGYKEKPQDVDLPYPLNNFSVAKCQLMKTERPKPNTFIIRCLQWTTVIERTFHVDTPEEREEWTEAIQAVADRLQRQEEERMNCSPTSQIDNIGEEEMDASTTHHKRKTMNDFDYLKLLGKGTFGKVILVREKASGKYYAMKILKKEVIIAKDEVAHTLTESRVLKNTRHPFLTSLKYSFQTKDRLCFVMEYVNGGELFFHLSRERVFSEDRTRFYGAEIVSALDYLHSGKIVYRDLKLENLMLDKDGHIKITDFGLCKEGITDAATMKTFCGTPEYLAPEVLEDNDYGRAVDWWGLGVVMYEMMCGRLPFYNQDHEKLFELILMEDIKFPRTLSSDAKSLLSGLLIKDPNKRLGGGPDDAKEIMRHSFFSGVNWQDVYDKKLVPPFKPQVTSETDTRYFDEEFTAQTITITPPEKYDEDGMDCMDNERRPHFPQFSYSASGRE

[14] = molecular target: T1, Serine/threonine-protein kinase AKT (Homo sapiens); experiment: Inhibition of Akt signaling pathway in human HT1080 cells assessed as fold change in phosphorylated 70S6K level at 10 uM incubated for 24 hrs by immunoblot assay (reference value: 1); assay type: cell-based; details: HT-1080
[15] = molecular target: T1, Serine/threonine-protein kinase AKT (Homo sapiens); experiment: Inhibition of Akt signaling pathway in human HT1080 cells assessed as fold change in phosphorylated Akt level at 0.01 uM incubated for 12 hrs by immunoblot assay (reference value: 1); assay type: cell-based; details: HT-1080
[16] = molecular target: T1, Serine/threonine-protein kinase AKT (Homo sapiens); experiment: Inhibition of Akt signaling pathway in human HT1080 cells assessed as fold change in phosphorylated Akt level at 0.1 uM incubated for 12 hrs by immunoblot assay (reference value: 1); assay type: cell-based; details: HT-1080
[17] = molecular target: T1, Serine/threonine-protein kinase AKT (Homo sapiens); experiment: Inhibition of Akt signaling pathway in human HT1080 cells assessed as fold change in phosphorylated Akt level at 1 uM incubated for 12 hrs by immunoblot assay (reference value: 1); assay type: cell-based; details: HT-1080
[18] = molecular target: T1, Serine/threonine-protein kinase AKT (Homo sapiens); experiment: Inhibition of Akt signaling pathway in human HT1080 cells assessed as fold change in phosphorylated Akt level at 10 uM incubated for 12 hrs by immunoblot assay (reference value: 1); assay type: cell-based; details: HT-1080
[19] = molecular target: T1, Serine/threonine-protein kinase AKT (Homo sapiens); experiment: Inhibition of Akt signaling pathway in human HT1080 cells assessed as reduction in phosphorylated Akt level incubated for 12 hrs by immunoblot assay; assay type: cell-based; details: HT-1080
[20] = test system: MCF7; experiment: Effect on HSP90 level in human MCF7 cells at 10 uM incubated for 24 hrs by immunoblotting assay (reference value: 1); assay type: ADME, cell-based; details: mcf7, 24 h
[21] = molecular target: Receptor tyrosine-protein kinase erbB-2 (Homo sapiens) (UniProt P04626); experiment: Induction of HER2 destabilization in human MCF7 cells assessed as half life at 10 uM measured up to 24 hrs by immunoblotting assay (Rvb > 24 hrs); assay type: cell-based
Receptor tyrosine-protein kinase erbB-2 (Homo sapiens), sequence (P04626 whole entry): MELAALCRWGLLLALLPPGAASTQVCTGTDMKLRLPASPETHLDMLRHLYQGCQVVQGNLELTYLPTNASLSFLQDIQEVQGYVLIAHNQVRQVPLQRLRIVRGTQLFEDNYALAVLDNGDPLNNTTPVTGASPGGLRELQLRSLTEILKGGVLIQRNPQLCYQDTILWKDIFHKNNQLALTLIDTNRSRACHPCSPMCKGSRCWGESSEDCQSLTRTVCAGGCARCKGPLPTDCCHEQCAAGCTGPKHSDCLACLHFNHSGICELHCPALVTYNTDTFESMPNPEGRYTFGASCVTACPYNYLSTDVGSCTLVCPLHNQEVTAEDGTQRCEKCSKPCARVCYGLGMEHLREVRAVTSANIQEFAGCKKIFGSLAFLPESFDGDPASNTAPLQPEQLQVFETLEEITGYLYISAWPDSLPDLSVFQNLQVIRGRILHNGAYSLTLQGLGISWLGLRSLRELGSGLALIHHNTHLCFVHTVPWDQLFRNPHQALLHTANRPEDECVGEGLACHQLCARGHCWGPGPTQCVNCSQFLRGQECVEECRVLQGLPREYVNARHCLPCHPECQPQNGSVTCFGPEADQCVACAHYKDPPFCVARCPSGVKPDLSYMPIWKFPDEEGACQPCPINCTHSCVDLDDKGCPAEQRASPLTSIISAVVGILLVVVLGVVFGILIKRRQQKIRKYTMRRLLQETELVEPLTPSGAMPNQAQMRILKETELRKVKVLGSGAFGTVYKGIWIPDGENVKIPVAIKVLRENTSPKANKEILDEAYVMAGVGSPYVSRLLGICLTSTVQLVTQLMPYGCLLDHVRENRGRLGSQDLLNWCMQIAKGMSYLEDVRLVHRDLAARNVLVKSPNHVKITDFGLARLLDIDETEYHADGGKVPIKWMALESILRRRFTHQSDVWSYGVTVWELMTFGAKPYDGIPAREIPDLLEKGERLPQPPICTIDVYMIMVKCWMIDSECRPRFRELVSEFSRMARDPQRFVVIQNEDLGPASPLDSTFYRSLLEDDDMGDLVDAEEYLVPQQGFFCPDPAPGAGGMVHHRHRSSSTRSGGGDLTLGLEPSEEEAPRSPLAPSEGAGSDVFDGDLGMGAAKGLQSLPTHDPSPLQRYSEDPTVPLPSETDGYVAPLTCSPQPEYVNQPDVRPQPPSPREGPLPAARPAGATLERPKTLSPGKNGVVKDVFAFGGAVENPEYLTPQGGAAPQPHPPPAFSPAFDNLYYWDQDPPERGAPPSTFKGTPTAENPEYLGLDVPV

[22] = test system: MCF7; experiment: Effect on HER2 mRNA expression in human MCF7 cells at 10 uM incubated for 24 hrs by qRT-PCR analysis; assay type: functional, cell-based
[23] = molecular target: Heat shock protein HSP90 (Homo sapiens) (UniProt P07900+P08238); experiment: Inhibition of HSP90 chaperone activity in human HeLa cells assessed as reduction in denatured luciferase refolding at 100 uM incubated for 60 mins by luciferase refolding assay; assay type: cell-based
[24] = molecular target: Luciferin 4-monooxygenase (Photinus pyralis) (UniProt P08659); experiment: Effect on firefly luciferase activity at 100 uM incubated for 60 mins by luciferase assay system
Luciferin 4-monooxygenase (Photinus pyralis), sequence (P08659 whole entry): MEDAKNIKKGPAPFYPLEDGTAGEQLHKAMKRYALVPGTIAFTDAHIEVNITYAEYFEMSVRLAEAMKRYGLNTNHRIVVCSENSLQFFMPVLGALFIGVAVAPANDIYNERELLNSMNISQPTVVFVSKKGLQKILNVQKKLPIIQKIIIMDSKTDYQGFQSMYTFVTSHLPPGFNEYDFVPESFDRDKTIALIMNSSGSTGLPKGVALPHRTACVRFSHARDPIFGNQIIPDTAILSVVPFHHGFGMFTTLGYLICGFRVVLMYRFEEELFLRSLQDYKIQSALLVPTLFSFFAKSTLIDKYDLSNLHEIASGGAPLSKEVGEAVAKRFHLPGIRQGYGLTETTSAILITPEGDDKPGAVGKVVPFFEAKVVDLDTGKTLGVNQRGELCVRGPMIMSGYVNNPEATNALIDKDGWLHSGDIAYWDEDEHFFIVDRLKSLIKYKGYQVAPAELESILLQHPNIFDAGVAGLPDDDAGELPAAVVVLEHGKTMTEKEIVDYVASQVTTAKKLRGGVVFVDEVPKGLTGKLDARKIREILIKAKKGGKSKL

| Structure (SMILES) | IC50 [1] [µM] | IC50 [2] [µM] | IC50 [3] [µM] | IC50 [4] [µM] | IC50 [5] [µM] | IC50 [6] [µM] | IC50 [8] [µM] | IC50 [9] [µM] | fold change (FC) [12] | fold change (FC) [13] | fold change (FC) [14] | fold change (FC) [20] | IC50 [7] [µM] | IC50 [10] [µM] | Activity [11] | Activity [22] | other results |
| --- | --- | --- | --- | --- | --- | --- | --- | --- | --- | --- | --- | --- | --- | --- | --- | --- | --- |
| C=C(I)CC[C@H]1O[C@@]1(C)[C@@H](/C=C/[C@](C)(CC=O)CCC=C(C)C)OC(=O)C=C(C)C | 18 | > 20 | 5.1 | 20 | > 20 | > 20 | > 20 | > 20 | 0.92 | 0.91 | 1.15 | – | > 20 | 11 | inactive | – | – |
| COC1=C2C[C@@H](C)C[C@H](OC)[C@H](O)[C@@H](C)/C=C(\C)[C@H](OC(N)=O)[C@@H](OC)/C=C\C=C(/C)C(=O)NC(=CC1=O)C2=O [GELDANAMYCIN] | – | – | – | – | – | – | – | – | – | – | – | 1.01 | – | – | – | inactive | – |
| CC(C)=CCC[C@]1(C)/C=C/[C@@H](OC(=O)C=C(C)C)[C@]2(C)O[C@@H]2CC/C(CO)=C\C1 | > 20 | 8.3 | 0.025 | 16 | 6.8 | > 20 | 15 | > 20 | 1.08 | 0.98 | 1.2 | – | 2.9 | 8.4 | inactive | – | – |

Now from value to compound, other results behind:

| IC50 [1] [µM] | IC50 [2] [µM] | IC50 [3] [µM] | IC50 [4] [µM] | IC50 [5] [µM] | IC50 [6] [µM] | IC50 [8] [µM] | IC50 [9] [µM] | fold change (FC) [12] | fold change (FC) [13] | fold change (FC) [14] | fold change (FC) [20] | Structure (SMILES) | IC50 [7] [µM] | IC50 [10] [µM] | Activity [11] | Activity [22] | other results |
| --- | --- | --- | --- | --- | --- | --- | --- | --- | --- | --- | --- | --- | --- | --- | --- | --- | --- |
| 1.2 | 4.4 | 3.5 | 0.89 | 2 | 0.97 | 3.5 | 4.3 | 0.8 | 0.11 | 0.08 | 0.98 | C=C1CC[C@H]2O[C@@]2(C)[C@H](OC(=O)C=C(C)C)/C=C/[C@@](C)(CCC=C(C)C)CC1=O | 4.3 | 3 | Active | inactive | fold change (FC) [15]: 0.99; fold change (FC) [16]: 0.8; fold change (FC) [17]: 0.63; fold change (FC) [18]: 0.38; inhibition [19]: Dose-dependent effect; T1/2 [21]: 15 h; inhibition [23]: Active; Activity [24]: inactive |
| 18 | 11 | 2.7 | 13 | 7.8 | > 20 | 12 | > 20 | 0.85 | 1.05 | 1.11 | – | CC(C)=CCC[C@]1(C)/C=C/[C@@H](OC(=O)C=C(C)C)[C@]2(C)O[C@@H]2CC/C(C=O)=C\C1 | 7.5 | 12 | inactive | – | – |
| > 20 | > 20 | > 20 | > 20 | > 20 | > 20 | > 20 | > 20 | 0.98 | 0.95 | 1.1 | – | C=C1CC[C@H]2O[C@@]2(C)[C@H](OC(=O)C=C(C)C)/C=C/[C@@](C)(CCC=C(C)C)C[C@H]1O | > 20 | 11 | inactive | – | – |
